Measured values reported in patent publication US12077503B2, “Substituted cyclic amides and their use as herbicides” (FMC CORPORATION, priority 2015, dated 2024).

Columns and labels:
Format in all cases: in vivo
corn (Zea mays) [1] = experiment: Test G Post-Emergence Protocol; details: Zea mays, post-emergence, 312 h, read-out: Corn damage rating; for plant injury at 15.625 g/ha: 15.625 g ai/ha, evaluated after 13 days (100=total damage to plant; 0=no damage to plant); for plant injury at 62.5 g/ha: 62.5 g ai/ha; for plant injury at 62.5 g/ha / plant injury at 250 g/ha: evaluated after 13 days, 100=total damage to plant, 0=no damage to plant; for plant injury at 250 g/ha: 250 g ai/ha
How it was run: (§1)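 Eight days post-sowing, plants received a spray of test compound (acetone/water 50:50, 0.5% Tween 20) at 15.625, 62.5 or 250 g/ha. Glasshouse regime thereafter: 24/16 °C, 14 h light, 65% humidity. Assessment after 13 days on a 0–100 damage scale.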

[2] = system: velvetleaf (Abutilon theophrasti); experiment: Test G Post-Emergence Protocol; details: Abutilon theophrasti, post-emergence, 312 h, read-out: Velvetleaf damage rating; for pest or weed control at 15.625 g/ha: 15.625 g ai/ha, evaluated after 13 days (100=total damage to plant; 0=no damage to plant); for pest or weed control at 62.5 g/ha: 62.5 g ai/ha; for pest or weed control at 62.5 g/ha / pest or weed control at 250 g/ha: evaluated after 13 days, 100=total damage to plant, 0=no damage to plant; for pest or weed control at 250 g/ha: 250 g ai/ha
How it was run: as §1

[3] = system: barnyardgrass (Echinochloa crus-galli); experiment: Test G Post-Emergence Protocol; details: Echinochloa crus-galli, post-emergence, 312 h, read-out: Barnyardgrass damage rating; for pest or weed control at 15.625 g/ha: 15.625 g ai/ha, evaluated after 13 days (100=total damage to plant; 0=no damage to plant); for pest or weed control at 62.5 g/ha: 62.5 g ai/ha; for pest or weed control at 62.5 g/ha / pest or weed control at 250 g/ha: evaluated after 13 days, 100=total damage to plant, 0=no damage to plant; for pest or weed control at 250 g/ha: 250 g ai/ha
How it was run: as §1

[4] = system: giant foxtail (Setaria faberi); experiment: Test G Post-Emergence Protocol; details: Setaria faberi, post-emergence, 312 h, read-out: Foxtail, Giant damage rating; for pest or weed control at 15.625 g/ha: 15.625 g ai/ha, evaluated after 13 days (100=total damage to plant; 0=no damage to plant); for pest or weed control at 62.5 g/ha: 62.5 g ai/ha; for pest or weed control at 62.5 g/ha / pest or weed control at 250 g/ha: evaluated after 13 days, 100=total damage to plant, 0=no damage to plant; for pest or weed control at 250 g/ha: 250 g ai/ha
How it was run: as §1

[5] = system: redroot pigweed (Amaranthus retroflexus); experiment: Test G Post-Emergence Protocol; details: Amaranthus retroflexus, post-emergence, 312 h, read-out: Pigweed, Redroot damage rating; for pest or weed control at 15.625 g/ha: 15.625 g ai/ha, evaluated after 13 days (100=total damage to plant; 0=no damage to plant); for pest or weed control at 62.5 g/ha: 62.5 g ai/ha; for pest or weed control at 62.5 g/ha / pest or weed control at 250 g/ha: evaluated after 13 days, 100=total damage to plant, 0=no damage to plant; for pest or weed control at 250 g/ha: 250 g ai/ha
How it was run: as §1

[6] = system: ivy-leaved morning glory (Ipomoea hederacea); experiment: Test G Post-Emergence Protocol; details: Ipomoea, post-emergence, 312 h, read-out: Morningglory, Ivy-leaved damage rating; for pest or weed control at 15.625 g/ha: 15.625 g ai/ha, evaluated after 13 days (100=total damage to plant; 0=no damage to plant); for pest or weed control at 62.5 g/ha: 62.5 g ai/ha; for pest or weed control at 62.5 g/ha / pest or weed control at 250 g/ha: evaluated after 13 days, 100=total damage to plant, 0=no damage to plant; for pest or weed control at 250 g/ha: 250 g ai/ha
How it was run: as §1

corn (Zea mays) [7] = experiment: Test G Pre-Emergence Protocol; details: Zea mays, pre-emergence, 312 h, evaluated after 13 days; for plant injury at 15.625 g/ha: 15.625 g ai/ha; for plant injury at 15.625 g/ha / plant injury at 250 g/ha: read-out: Corn damage rating (100=total damage to plant; 0=no damage to plant); for plant injury at 62.5 g/ha: 62.5 g ai/ha, 100=total damage to plant, 0=no damage to plant, read-out: Corn damage rating; for plant injury at 250 g/ha: 250 g ai/ha
How it was run: (§2)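 Test compound in 0.5% Tween 20 acetone/water (50:50) was applied at three rates (15.625, 62.5, 250 g/ha) to soil sown one day earlier. After 13 days plants were scored for injury, where 0 means unaffected and 100 means completely damaged.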

[8] = system: velvetleaf (Abutilon theophrasti); experiment: Test G Pre-Emergence Protocol; details: Abutilon theophrasti, pre-emergence, 312 h, evaluated after 13 days; for pest or weed control at 15.625 g/ha: 15.625 g ai/ha; for pest or weed control at 15.625 g/ha / pest or weed control at 250 g/ha: read-out: Velvetleaf damage rating (100=total damage to plant; 0=no damage to plant); for pest or weed control at 62.5 g/ha: 62.5 g ai/ha, 100=total damage to plant, 0=no damage to plant, read-out: Velvetleaf damage rating; for pest or weed control at 250 g/ha: 250 g ai/ha
How it was run: as §2

[9] = system: barnyardgrass (Echinochloa crus-galli); experiment: Test G Pre-Emergence Protocol; details: Echinochloa crus-galli, pre-emergence, 312 h, evaluated after 13 days; for pest or weed control at 15.625 g/ha: 15.625 g ai/ha; for pest or weed control at 15.625 g/ha / pest or weed control at 250 g/ha: read-out: Barnyardgrass damage rating (100=total damage to plant; 0=no damage to plant); for pest or weed control at 62.5 g/ha: 62.5 g ai/ha, 100=total damage to plant, 0=no damage to plant, read-out: Barnyardgrass damage rating; for pest or weed control at 250 g/ha: 250 g ai/ha
How it was run: as §2

[10] = system: giant foxtail (Setaria faberi); experiment: Test G Pre-Emergence Protocol; details: Setaria faberi, pre-emergence, 312 h, evaluated after 13 days; for pest or weed control at 15.625 g/ha: 15.625 g ai/ha; for pest or weed control at 15.625 g/ha / pest or weed control at 250 g/ha: read-out: Foxtail, Giant damage rating (100=total damage to plant; 0=no damage to plant); for pest or weed control at 62.5 g/ha: 62.5 g ai/ha, 100=total damage to plant, 0=no damage to plant, read-out: Foxtail, Giant damage rating; for pest or weed control at 250 g/ha: 250 g ai/ha
How it was run: as §2

[11] = system: redroot pigweed (Amaranthus retroflexus); experiment: Test G Pre-Emergence Protocol; details: Amaranthus retroflexus, pre-emergence, 312 h, evaluated after 13 days; for pest or weed control at 15.625 g/ha: 15.625 g ai/ha; for pest or weed control at 15.625 g/ha / pest or weed control at 250 g/ha: read-out: Pigweed, Redroot damage rating (100=total damage to plant; 0=no damage to plant); for pest or weed control at 62.5 g/ha: 62.5 g ai/ha, 100=total damage to plant, 0=no damage to plant, read-out: Pigweed, Redroot damage rating; for pest or weed control at 250 g/ha: 250 g ai/ha
How it was run: as §2

[12] = system: ivy-leaved morning glory (Ipomoea hederacea); experiment: Test G Pre-Emergence Protocol; details: Ipomoea, pre-emergence, 312 h, evaluated after 13 days; for pest or weed control at 15.625 g/ha: 15.625 g ai/ha; for pest or weed control at 15.625 g/ha / pest or weed control at 250 g/ha: read-out: Morningglory, Ivy-leaved damage rating (100=total damage to plant; 0=no damage to plant); for pest or weed control at 62.5 g/ha: 62.5 g ai/ha, 100=total damage to plant, 0=no damage to plant, read-out: Morningglory, Ivy-leaved damage rating; for pest or weed control at 250 g/ha: 250 g ai/ha
How it was run: as §2

Row | SMILES | plant injury at 15.625 g/ha (corn (Zea mays) [1]) [%] | plant injury at 62.5 g/ha (corn (Zea mays) [1]) [%] | plant injury at 250 g/ha (corn (Zea mays) [1]) [%] | pest or weed control at 15.625 g/ha [2] [%] | pest or weed control at 62.5 g/ha [2] [%] | pest or weed control at 250 g/ha [2] [%] | pest or weed control at 15.625 g/ha [3] [%] | pest or weed control at 62.5 g/ha [3] [%] | pest or weed control at 250 g/ha [3] [%] | pest or weed control at 15.625 g/ha [4] [%] | pest or weed control at 62.5 g/ha [4] [%] | pest or weed control at 15.625 g/ha [5] [%] | pest or weed control at 62.5 g/ha [5] [%] | pest or weed control at 250 g/ha [5] [%] | pest or weed control at 15.625 g/ha [6] [%] | pest or weed control at 62.5 g/ha [6] [%] | pest or weed control at 250 g/ha [6] [%] | plant injury at 15.625 g/ha (corn (Zea mays) [7]) [%] | plant injury at 62.5 g/ha (corn (Zea mays) [7]) [%] | plant injury at 250 g/ha (corn (Zea mays) [7]) [%] | further results
1 | CN1C[C@H](c2ccc(C(F)(F)F)cc2)[C@@H](C(=O)Nc2cccnc2S(C)(=O)=O)C1=O (racemic) [Compound 1789] | 0 | 0 | 10 | 0 | 0 | 20 | 0 | 0 | 0 | 0 | 0 | 0 | 0 | 20 | 0 | 0 | 0 | 0 | 0 | 10 | pest or weed control at 15.625 g/ha [8]: 0%; pest or weed control at 62.5 g/ha [8]: 0%; pest or weed control at 250 g/ha [8]: 20%; pest or weed control at 15.625 g/ha [9]: 0%; pest or weed control at 62.5 g/ha [9]: 0%; pest or weed control at 250 g/ha [9]: 0%; pest or weed control at 15.625 g/ha [10]: 0%; pest or weed control at 62.5 g/ha [10]: 0%; pest or weed control at 250 g/ha [10]: 0%; pest or weed control at 15.625 g/ha [11]: 0%; pest or weed control at 62.5 g/ha [11]: 0%; pest or weed control at 250 g/ha [11]: 20%; pest or weed control at 15.625 g/ha [12]: 0%; pest or weed control at 62.5 g/ha [12]: 0%; pest or weed control at 250 g/ha [12]: 0%
2 | Cc1c(F)cccc1NC(=O)[C@@H]1C(=O)N(C)C[C@H]1c1cc(Cl)c(F)c(Cl)c1 (racemic) [Compound 1792] | 20 | 40 | 60 | 0 | 20 | 40 | 30 | 70 | 70 | 70 | 80 | 0 | 0 | 0 | 10 | 30 | 40 | 0 | 20 | 50 | pest or weed control at 250 g/ha [4]: 80%; pest or weed control at 15.625 g/ha [8]: 0%; pest or weed control at 62.5 g/ha [8]: 0%; pest or weed control at 250 g/ha [8]: 0%; pest or weed control at 15.625 g/ha [9]: 30%; pest or weed control at 62.5 g/ha [9]: 70%; pest or weed control at 250 g/ha [9]: 80%; pest or weed control at 15.625 g/ha [10]: 80%; pest or weed control at 62.5 g/ha [10]: 80%; pest or weed control at 250 g/ha [10]: 90%; pest or weed control at 15.625 g/ha [11]: 0%; pest or weed control at 62.5 g/ha [11]: 0%; pest or weed control at 250 g/ha [11]: 0%; pest or weed control at 15.625 g/ha [12]: 0%; pest or weed control at 62.5 g/ha [12]: 0%; pest or weed control at 250 g/ha [12]: 0%
3 | CN1C[C@H](c2ccc(C#N)c(C(F)(F)F)c2)[C@@H](C(=O)Nc2ccccc2S(C)(=O)=O)C1=O (racemic) [Compound 1796] | 0 | 0 | 0 | 0 | 0 | 0 | 0 | 0 | 0 | 0 | 0 | 0 | 10 | 20 | 0 | 10 | 10 | 0 | 0 | 0 | pest or weed control at 250 g/ha [4]: 0%; pest or weed control at 15.625 g/ha [8]: 0%; pest or weed control at 62.5 g/ha [8]: 0%; pest or weed control at 250 g/ha [8]: 10%; pest or weed control at 15.625 g/ha [9]: 0%; pest or weed control at 62.5 g/ha [9]: 0%; pest or weed control at 250 g/ha [9]: 0%; pest or weed control at 15.625 g/ha [10]: 0%; pest or weed control at 62.5 g/ha [10]: 0%; pest or weed control at 250 g/ha [10]: 0%; pest or weed control at 15.625 g/ha [11]: 0%; pest or weed control at 62.5 g/ha [11]: 0%; pest or weed control at 250 g/ha [11]: 20%; pest or weed control at 15.625 g/ha [12]: 0%; pest or weed control at 62.5 g/ha [12]: 0%; pest or weed control at 250 g/ha [12]: 0%
